Laboratory results from ChEMBL document CHEMBL2412996, “Increase of anti-HIV activity of C-peptide fusion inhibitors using a bivalent drug design approach” (Bioorg Med Chem Lett, 2013).
Square brackets hold non-standard residues; d marks the D form. Peptide text beside a SMILES is read from it. Ahx = NCCCCCC(=O)O

Key:
Type in all cases: cell-based
[1] = Inhibition of HIV1 HXB2 gp160-mediated cell-cell fusion between viral envelope expressing human HL2/3 cells to human TZM-bl cells expressing CD4, tat, and rev by luciferase reporter gene assay; details: Human immunodeficiency virus 1, HXB2, TZM-bl
TZM-bl [2] = experiment: Inhibition of HIV1 HXB2 gp160-mediated cell-cell fusion between viral envelope expressing human HL2/3 cells to human TZM-bl cells expressing CD4, tat, and rev by luciferase reporter gene assay relative to SC22EK; details: Human immunodeficiency virus 1
TZM-bl [3] = experiment: Inhibition of HIV1 HXB2 gp160-mediated cell-cell fusion between viral envelope expressing human HL2/3 cells to human TZM-bl cells expressing CD4, tat, and rev by luciferase reporter gene assay relative to C22; details: Human immunodeficiency virus 1

| SMILES | IC50 [1] | Ratio (TZM-bl [2]) | Ratio (TZM-bl [3]) |
| --- | --- | --- | --- |
| CC[C@H](C)[C@H](NC(=O)[C@H](CC(C)C)NC(=O)[C@H](CCC(=O)O)NC(=O)[C@H](CCC(=O)O)NC(=O)[C@@H](NC(=O)[C@H](CCCCN)NC(=O)[C@H](CCCCN)NC(=O)[C@@H](NC(=O)[C@H](Cc1ccc(O)cc1)NC(=O)[C@H](CCC(=O)O)NC(=O)[C@H](CCC(=O)O)NC(=O)[C@@H](NC(=O)[C@H](CCCCN)NC(=O)[C@H](CCCCN)NC(=O)[C@H](CC(=O)O)NC(=O)[C@H](Cc1c[nH]c2ccccc12)NC(=O)[C@H](CCC(=O)O)NC(=O)[C@H](CCC(=O)O)NC(=O)[C@H](Cc1c[nH]c2ccccc12)NC(=O)CCCCCNC(=O)[C@H](CS)NC(C)=O)[C@@H](C)CC)[C@@H](C)O)[C@@H](C)CC)C(=O)N[C@@H](CCCCN)C(=O)N[C@@H](CCCCN)C(=O)N[C@@H](CO)C(=O)O (Ac-C[Ahx]WEEWDKKIEEYTKKIEELIKKS-OH) | 38.6 nM | 8.97 |  |
| CC[C@H](C)[C@H](NC(=O)[C@H](CC(C)C)NC(=O)[C@H](CO)NC(=O)[C@H](Cc1cnc[nH]1)NC(=O)[C@@H](NC(=O)[C@H](CC(C)C)NC(=O)[C@H](CO)NC(=O)[C@@H](NC(=O)[C@H](Cc1ccc(O)cc1)NC(=O)[C@H](CC(N)=O)NC(=O)[C@H](CC(N)=O)NC(=O)[C@@H](NC(=O)[C@H](CCC(=O)O)NC(=O)[C@H](CCCNC(=N)N)NC(=O)[C@H](CC(=O)O)NC(=O)[C@H](Cc1c[nH]c2ccccc12)NC(=O)[C@H](CCC(=O)O)NC(=O)[C@H](CCSC)NC(=O)[C@H](Cc1c[nH]c2ccccc12)NC(=O)CCCCCNC(=O)[C@H](CS)NC(C)=O)[C@@H](C)CC)[C@@H](C)O)[C@@H](C)CC)C(=O)N[C@@H](CCC(=O)O)C(=O)N[C@@H](CCC(=O)O)C(=O)N[C@@H](CO)C(=O)O (Ac-C[Ahx]WMEWDREINNYTSLIHSLIEES-OH) | 561 nM |  | 2.21 |
